Experimental data from EP0385952A2, “Use of a naphthalenmethanamino derivative as antiinflammatory agent and pharmaceutical compositions containing it” (SANDOZ AG, priority 1989, dated 1990).
Marks after values point to notes of the source that are not given here.

Tests used:
Type in all cases: in vivo
mice [1] = test: TPA-induced pinnal swelling in mice (irritant contact dermatitis, 2.1.2.); details: therapeutic, topical, pinnal weight after 6 hours
Protocol: (§1) Skin irritation with arachidonic acid or cantharidin is often used to experimentally induce inflammation in order to evaluate the anti-inflammatory activity of a compound [see e.g. Inflammation 8 (1984) 134-135; 10 (1986) 205-214]. NMRI mice (8 animals per group) receive 10 µl of a 10 % solution of arachidonic acid [J.M. Young et al., J. Invest. Derm. 82 (1986) 367-371] in acetone or, respectively, 0.08 % cantharidin [K.E. Swingle et al., Arch. Int. Pharmacodyn. Ther. 254 (1981) 168-176] in acetone applied to the medial and lateral surface of the right external ear. Treatment is performed either prophylactically 30 minutes before irritation (arachidonic acid) or, respectively, either simultaneously with the application of irritant solution or therapeutically 20 minutes after irritation (cantharidin), by a single epicutaneous application of the test compound dissolved in a mixture of N,N-dimethylacetamide, acetone and alcohol (2:2:4). The evaluation of the test group is effected by comparison with a control group of animals having received on the right ear lobe only the carrier substance or the irritant solution. The animals are killed 1.5 hours (arachidonic acid) or, respectively, 17 hours (cantharidin) after application of the irritant and efficacy in assessed by determination of the differences in auricular weight. Differences in weights (D) of right (involved) and left (uninvolved) pinnae of animals treated with test compound and arachidonic acid or cantharidin (T-group) are compared with differences in mice treated with arachidonic acid only or cantharidin only (C-group). Efficacy (%) is calculated according to the equation: [formula]
(§2) This model is similar to the above (see 2.1.1.). Skin inflammation is induced with 15 µl of 0.23 % croton oil in a mixture of dimethylacetamide, acetone and ethanol (2:4:4), or with 10 µl of 0.005 % TPA [12-O-tetradecanoylphorbol-13-acetate; Sigma] prepared in acetone with 0.5 % dimethylsulfoxide. Topical treatment is performed either simultaneously with the irritation (croton oil) or 20 minutes after the application (TPA). The test compound is prepared in DAE. Efficacy is assessed 6 hours after onset of irritation by determination of the auricular weight as described above.

NMRI mice [2] = test: Cantharidin-induced pinnal swelling in mice (irritant contact dermatitis, 2.1.1.); details: epicutaneous, pinnal weight
Protocol: as §1

mice [3] = test: Croton oil-induced pinnal swelling in mice (irritant contact dermatitis, 2.1.2.); details: simultaneous, topical, pinnal weight after 6 hours
Protocol: as §1, §2

guinea pigs = test: UV-erythema model (2.2.); details: therapeutic, test concentration 5.0 %, topical, erythema score
Protocol: Female guinea pigs weighing 250-300 g are used. On the day before experiment they are shorn on both flanks followed by a final dry shaving without skin irritation two hours before UV exposure. Two circular areas (10 mm diameter) on each flank are exposed 10 seconds to ultraviolet rays from […] at an intensity of 16 mW/cm² (UVA) and 500 mW/cm² (UVB). Drugs are administered topically immediately after exposure to UV light in a volume of 50 µl of 25 % ethanol and 75 %polyethylenglycol-400 to the irradiated skin areas on the right flank. Two areas on the left flank serve as vehicle control. Erythema is assessed visually 3.5 and 5.5 hours after irradiation and results expressed in scores. Changes in erythema intensity after drug administration are expressed as percentages of the scored erythema intensity in vehicle-treated areas.

NMRI mice [4] = test: Arachidonic acid-induced pinnal swelling in mice (irritant contact dermatitis, 2.1.1.); details: prophylactic, epicutaneous, pinnal weight
Protocol: as §1

CCCCOc1ccc(CC(=O)NO)cc1 [Bufexamac, 2-[p-(n-butyloxy)phenyl]-acetohydroxamic acid, reference compound]
Efficacy (%) (mice [1]; test concentration 1.2 %): 1% | Efficacy (%) (mice [1]; test concentration 3.6 %): 2% | Efficacy (%) (NMRI mice [2]; simultaneous, test concentration 1.2 %): 36% | Efficacy (%) (NMRI mice [2]; simultaneous, test concentration 3.6 %): 29% | Efficacy (%) (NMRI mice [2]; therapeutic, test concentration 1.2 %): 22% | Efficacy (%) (NMRI mice [2]; therapeutic, test concentration 3.6 %): 14% | Efficacy (%) (mice [3]; test concentration 1.2 %): 11% | Efficacy (%) (mice [3]; test concentration 3.6 %): 36** % | Efficacy (%) (guinea pigs): 8% | Efficacy (%) (NMRI mice [4]; test concentration 1.2 %): 35* % | Efficacy (%) (NMRI mice [4]; test concentration 3.6 %): 22* %
